# Counter-ions that a name gives are not always drawn.
# Tests used:
# human β2-adrenoceptor [1] = biological target: T1, human β2-adrenoceptor (Homo sapiens, UniProt P07550); assay: Agonistic activity, calcium influx in CHO cells (Assay 2 - Method B); type: cell-based; details: agonist, hβ2-CHO cells, read-out: Beta-2 EC50
# T1 construct: expressed in transfected cells; host or cells: Chinese hamster ovary (CHO) cells (hβ2-CHO)
# Excerpt: (§1) Measurement of Agonistic Activity for Human β1-Adrenoceptor or Human β2-Adrenoceptor (Assay 2—Method B)
# (§2) The agonistic activity of the compound to human β2-adrenoceptor was examined by measurement of calcium influx in Chinese hamster ovary (CHO) cells, in which recombinant human β2-adrenoceptor was expressed (hβ2-CHO cells). The cells were cultivated in DMEM F12 medium. Prior to measurement, the cells were loaded with Coelenterazine (1:2000) in Ca-Tyrode. The Ca-influx was directly measured for 45 sec (Hamamatsu FluoroBox fluorescence detector). The effect of the compound on calcium influx was determined at 8 different concentrations from 1 pM to 10 μM. The concentration to induce 50% of maximum response, 50% effective concentration (EC50), was calculated. Experiments with the same methods were performed in CHO cells expressing recombinant human β1-adrenoceptor to examine the effects of the compounds on human β1-adrenoceptor.
# human β1-adrenoceptor [2] = biological target: T2, human β1-adrenoceptor (Homo sapiens, UniProt P08588); assay: as above; type: cell-based; details: agonist, CHO cells expressing recombinant human β1-adrenoceptor, read-out: Beta-1 EC50
# T2 construct: expressed in transfected cells; host or cells: Chinese hamster ovary (CHO) cells
# T2 sequence (P08588 whole entry): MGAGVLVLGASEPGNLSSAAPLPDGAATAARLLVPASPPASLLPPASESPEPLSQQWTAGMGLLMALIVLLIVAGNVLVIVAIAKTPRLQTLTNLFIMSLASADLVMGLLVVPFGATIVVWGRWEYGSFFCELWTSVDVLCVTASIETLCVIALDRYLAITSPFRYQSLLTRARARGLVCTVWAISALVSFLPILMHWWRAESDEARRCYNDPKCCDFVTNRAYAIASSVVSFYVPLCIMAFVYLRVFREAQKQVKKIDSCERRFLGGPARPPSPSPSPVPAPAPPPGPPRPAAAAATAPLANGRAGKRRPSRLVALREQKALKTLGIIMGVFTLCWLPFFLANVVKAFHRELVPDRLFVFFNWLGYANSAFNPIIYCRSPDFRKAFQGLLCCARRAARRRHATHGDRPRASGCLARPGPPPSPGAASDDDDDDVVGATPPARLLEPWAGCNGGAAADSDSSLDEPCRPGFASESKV
# Excerpt: as §1, §2
# β3-adrenoceptor [3] = biological target: T3, β3-adrenoceptor (Homo sapiens, UniProt P13945); assay: Measurement of cAMP production in SK-N-MC cells (Assay 1 - Method A); type: cell-based; details: 1 μM CGP20712A, read-out: Beta-3 EC50
# T3 construct: which endogenously express β1- and β3-adrenoceptors; endogenous in cells; host or cells: SK-N-MC human neuroblastoma cells
# T3 sequence (P13945 whole entry): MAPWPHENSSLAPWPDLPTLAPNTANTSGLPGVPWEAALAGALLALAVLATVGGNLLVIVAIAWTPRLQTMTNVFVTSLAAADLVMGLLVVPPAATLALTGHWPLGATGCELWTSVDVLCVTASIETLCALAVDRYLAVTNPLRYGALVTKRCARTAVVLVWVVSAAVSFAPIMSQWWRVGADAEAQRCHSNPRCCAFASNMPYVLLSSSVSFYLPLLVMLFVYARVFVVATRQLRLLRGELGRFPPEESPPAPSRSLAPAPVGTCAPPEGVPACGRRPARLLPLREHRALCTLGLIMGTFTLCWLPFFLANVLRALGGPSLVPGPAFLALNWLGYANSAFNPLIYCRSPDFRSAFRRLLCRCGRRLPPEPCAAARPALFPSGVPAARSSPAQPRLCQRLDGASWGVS
# Procedure: Measurement of cAMP Production in SK-N-MC Cells (Assay 1—Method A)
# Human neuroblastoma cell line, SK-N-MC, which endogenously express β1- and β3-adrenoceptors was utilized. In the presence of 1 μM of […] selective antagonist, CGP20712A, the effects of the compounds on cAMP levels were examined. SK-N-MC cells were suspended in Hank's balanced salt solution containing 20 mM Hepes, 0.1% BSA, 1 mM L-ascorbic acid sodium salt, 250 nM IBMX, and 1 μM CGP20712A (pH 7.4). After incubating at 37° C. for 30 min, the compound of the present invention was added and cells were further incubated for 30 min. Total cAMP in the well was measured by cAMP ELISA kit (Tropix, Bedford, Mass.). Effect of the compound on the cAMP level was determined at 6 different concentrations from 0.1 nM to 10 μM. The concentration to induce 50% of maximum response, 50% effective concentration (EC50), was calculated. In addition, intrinsic activity (IA) was determined as a maximum response induced by each compound, and IA was expressed as relative value compared with a response induced by 10 μM isoproterenol (i.e. cAMP level increased by 10 μM isoproterenol was taken as 100%).
# β3-adrenoceptor [4] = biological target: T3, β3-adrenoceptor; assay: Measurement of cAMP production in SK-N-MC cells (Assay 1 - Method B); type: cell-based; details: 1 μM Atenolol, read-out: Beta-3 EC50
# Procedure: Measurement of cAMP production in SK-N-MC Cells (Assay 1—Method B)
# Human neuroblastoma cell line, SK-N-MC, which endogenously express […] were utilized. In the presence or absence of 1 μM of β1-adrenoceptor selective antagonist, Atenolol, the effects of the compounds on cAMP levels were examined. SK-N-MC cells were suspended in Hank's balanced salt solution containing 20 mM Hepes, 0.1% BSA, 1 mM L-ascorbic acid sodium salt, 250 nM IBMX, and 1 μM Atenolol (pH 7.4). After incubating at 37° C. for 1 h, the compound of the present invention was added and cells were further incubated for 30 min. Total cAMP in the well was measured by cAMP ELISA kit (Tropix, Bedford, Mass.). Effect of the compound on the cAMP level was determined at 8 different concentrations from 1 pM to 10 μM. The concentration to induce 50% of maximum response, 50% effective concentration (EC50), was calculated.
# human β2-adrenoceptor [5] = biological target: T1, human β2-adrenoceptor; assay: Agonistic activity, cAMP levels in CHO cells (Assay 2 - Method A); type: cell-based; details: agonist, hβ2-CHO cells, read-out: Beta-2 EC50
# Procedure: (§3) Measurement of Agonistic Activity for Human β1-Adrenoceptor Or Human β2-Adrenoceptor (Assay 2—Method A)
# (§4) The agonistic activity of the compound to human […] was examined by measurement of cAMP levels in Chinese hamster ovary (CHO) cells, in which recombinant human […] was expressed (hβ2-CHO cells). The hβ2-CHO cells were suspended in Hank's balanced salt solution containing 20 mM Hepes, 0.1% BSA, 1 mM L-ascorbic acid sodium salt, and 250 nM IBMX (pH 7.4). After incubating at 37° C. for 30 min, the compound of the present invention was added and cells were further incubated for 30 min. Total cAMP in the well was measured by cAMP ELISA kit (Tropix, Bedford, Mass.). The effect of the compound on the cAMP level was determined at 6 different concentrations from 0.1 nM to 10 μM. The concentration to induce 50% of maximum response, 50% effective concentration (EC50), was calculated. In addition, intrinsic activity (IA) was determined as a maximum response induced by each compound, and IA was expressed as relative value compared with a response induced by 10 μM isoproterenol (i.e. cAMP level increased by 10 μM isoproterenol was taken as 100%). Experiments with the same methods were performed in CHO cells expressing recombinant human β1-adrenoceptor to examine the effects of the compounds on human β1-adrenoceptor.
# human β1-adrenoceptor [6] = biological target: T2, human β1-adrenoceptor; assay: as above; type: cell-based; details: agonist, CHO cells expressing recombinant human β1-adrenoceptor, read-out: Beta-1 EC50
# Procedure: as §3, §4
# human β2-adrenoceptor [7] = biological target: T1, human β2-adrenoceptor; assay: Antagonistic activity, isoproterenol-induced cAMP production in CHO cells (Assay 3); type: cell-based; details: antagonist; inhibition of cAMP production induced by 100 nM isoproterenol, hβ2-CHO cells; read-out: Beta-2 IC50
# Procedure: (§5) Measurement of Antagonistic Activity for Human […] (Assay 3)
# (§6) The antagonistic activity of the compound to human β2-adrenoceptor was examined by measurement of cAMP levels in the hβ2-CHO cells stimulated by isoproterenol. The hβ2-CHO cells were suspended in Hank's balanced salt solution containing 20 mM Hepes, 0.1% BSA, 1 mM L-ascorbic acid sodium salt, and 250 nM IBMX (pH 7.4). The cells were stimulated by non-selective β-adrenoceptor agonist isoproterenol at 100 nM to increase cAMP levels. After incubating at 37° C. for 30 min, the compound of the present invention was added and cells were further incubated for 30 min. Total cAMP in the well was measured by cAMP ELISA kit (Tropix, Bedford, Mass.). Inhibitory effect of the compound on the isoproterenol-induced cAMP production was determined at 6 different concentrations from 0.1 nM to 10 μM. The concentration to induce 50% of inhibitory response, 50% inhibitory concentration (IC50), was calculated. Experiments with the same methods were performed in CHO cells expressing recombinant human β1-adrenoceptor to examine the effects of the compounds on human β1-adrenoceptor.
# human β1-adrenoceptor [8] = biological target: T2, human β1-adrenoceptor; assay: as above; type: cell-based; details: antagonist; inhibition of cAMP production induced by 100 nM isoproterenol, CHO cells expressing human β1-adrenoceptor; read-out: Beta-1 IC50
# Procedure: as §5, §6
# T1 sequence (P07550 whole entry): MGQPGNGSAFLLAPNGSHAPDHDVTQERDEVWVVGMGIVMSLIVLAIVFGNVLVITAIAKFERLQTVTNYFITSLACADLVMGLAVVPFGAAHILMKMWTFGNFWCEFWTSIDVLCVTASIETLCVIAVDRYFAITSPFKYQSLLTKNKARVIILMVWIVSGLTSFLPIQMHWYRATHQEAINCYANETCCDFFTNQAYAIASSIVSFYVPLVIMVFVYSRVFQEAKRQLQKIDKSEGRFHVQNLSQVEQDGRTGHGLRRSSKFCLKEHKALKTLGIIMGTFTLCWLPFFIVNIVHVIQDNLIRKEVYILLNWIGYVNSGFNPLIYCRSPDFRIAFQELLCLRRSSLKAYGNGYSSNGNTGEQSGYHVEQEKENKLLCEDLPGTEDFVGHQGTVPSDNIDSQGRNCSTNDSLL
SMILES,melting point [°C],EC50 (β3-adrenoceptor [3]) [nM],further results
COc1cc(Oc2ccc3c(c2)CC[C@H](CNC[C@H](O)COc2ccccc2)O3)c(C(=O)O)cc1OC [Example 54],,,EC50 (human β2-adrenoceptor [1]): > 10000 nM; EC50 (human β1-adrenoceptor [2]): 8000 nM
O=C(O)c1ccccc1Oc1ccc2c(c1)CC[C@H](CNC[C@H](O)COc1ccc(F)c(Cl)c1)O2 [Example 43],196 to 199,,
O=C(O)c1ccccc1Oc1ccc2c(c1)CC[C@H](CNC[C@H](O)COc1ccccc1-c1ccccc1)O2 [Example 37],175,230,
O=C(O)c1ccccc1Oc1ccc2c(c1)CC[C@H](CNC[C@H](O)COc1ccccc1F)O2 [Example 36],209,,
O=C(O)c1ccccc1Oc1ccc2c(c1)CC[C@H](CNC[C@H](O)COc1c(F)cccc1F)O2 [Example 41],196 to 198,,
"O=C(O)c1cc(F)ccc1Oc1ccc2c(c1)CC[C@H](CNC[C@H](O)COc1ccccc1)O2 [Example 44, 5-fluoro-2-{[(2R)-2-({[(2S)-2-hydroxy-3-phenoxypropyl]amino}methyl)-3,4-dihydro-2H-chromen-6-yl]oxy}benzoic Acid Hydrochloride]",,,EC50 (β3-adrenoceptor [4]): 23 nM; EC50 (human β2-adrenoceptor [1]): > 10000 nM; EC50 (human β1-adrenoceptor [2]): > 10000 nM
"O=C(O)c1ccccc1Oc1ccc2c(c1)CC[C@H](CNC[C@H](O)COc1ccccc1)O2 [Example 1, 2-{[(2R)-2-({[(2S)-2-hydroxy-3-phenoxypropyl]amino}methyl)-3,4-dihydro-2H-chromen-6-yl]oxy}benzoic Acid]",,26,EC50 (human β2-adrenoceptor [5]): > 10000 nM; EC50 (human β1-adrenoceptor [6]): > 10000 nM; IC50 (human β2-adrenoceptor [7]): 930 nM; IC50 (human β1-adrenoceptor [8]): > 10000 nM
N#Cc1ccc(Nc2ccc3c(c2)CC[C@H](CNC[C@H](O)COc2ccccc2)O3)cc1 [Example 29],,160,
"CN(c1ccc(C(=O)O)cc1)c1ccc2c(c1)CC[C@H](CNC[C@H](O)COc1ccccc1)O2 [Example 2, 4-[[(2R)-2-({[(2S)-2-hydroxy-3-phenoxypropyl]amino}methyl)-3,4-dihydro-2H-chromen-6-yl](methyl)amino]benzoic acid hydrochloride]",,14,
CC(C)(C)c1cc(C(=O)O)ccc1Oc1ccc2c(c1)CC[C@H](CNC[C@H](O)COc1ccccc1)O2 [Example 23],,,EC50 (human β2-adrenoceptor [5]): > 10000 nM
O=C(O)c1ccccc1Oc1ccc2c(c1)CC[C@H](CNC[C@H](O)COc1ccc(F)cc1F)O2 [Example 40],138 to 142,,
O=C(O)c1ccccc1Oc1ccc2c(c1)CC[C@H](CNC[C@H](O)COc1ccccc1C(F)(F)F)O2 [Example 38],162,,
O=C(O)c1ccccc1Oc1ccc2c(c1)CC[C@H](CNC[C@H](O)COc1ccccc1Cl)O2 [Example 39],230,,
COc1cc(C(=O)O)ccc1Oc1ccc2c(c1)CC[C@H](CNC[C@H](O)COc1ccccc1)O2 [Example 12],,270,
O=C(O)c1ccccc1Oc1ccc2c(c1)CC[C@H](CNC[C@H](O)COc1ccccc1N1CCOCC1)O2 [Example 42],173 to 176,,
O=C(O)c1cccc(Nc2ccc3c(c2)CC[C@H](CNC[C@H](O)COc2ccccc2)O3)c1 [Example 11],,,EC50 (β3-adrenoceptor [4]): 186 nM

# — patent US20050222247A1, “Chroman derivatives” (Bayer HealthCare AG, priority 2003, published 2005)
